Reference: patent US6008230A, “Quinoline compounds as H^+ -ATPases” (Fujisawa Pharmaceutical Co., Ltd., priority 1995, dated 1999)
Structures can show the parent of a compound that is named as a salt.

What was measured:
[1] = tested on: vacuolar type H^+ -ATPase; test: Inhibition of vacuolar type H^+ -ATPase proton transport; format: biochemical; conditions: microsomes from mouse peritoneal macrophages; acridine orange uptake; concentration 1×10^-6 M; pH 7.0
Procedure: Test 1 (Inhibition of vacuolar type H^+ -ATPase proton transport): Test Method (a) Preparation of microsomes from mouse peritoneal macrophages Seven-week-old male ddY mice were injected intraperitoneally with 2 ml of 3% thioglycolate medium. After 3-5 days, the mice were decapitated, and the peritoneal macrophages were obtained by peritoneal lavage with 5-6 ml of Hanks' balanced salt solution (HBSS). The cells were washed twice with cold HBSS. Vesicles were prepared from the cells, homogenized in a Douncee homogenizer (20 strokes) in 10 ml of 250 mM sucrose, 5 mM Tris, 1 mM EGTA, 1 mM KHCO3 and 1 mM dithiothreitol, pH 7.0, at 4° C. After an initial centrifugation (1000× g for 5 minutes), the supernatant was centrifuged 6000× g for 15 minutes) to remove mitochondria and lysosomes. The supernatant was centrifuged at 42000× g for 30 minutes, and microsomal pellet was collected and stored at -80° C. (b) Measurement of proton transport Proton transport was assayed with a dual-wavelength spectrophotometer by monitering uptake of acridine orange (Reference 540 nm, Measurement 492 nm) [H. C. Blair, J. Cell. Biol., 102, 1164 (1986)] with aliquot of membrane vesicles suspended in […] of assay buffer containing 150 mM KCl, 10 mM bis-tris-propane, 2 mM MgCl2, […], […] oligomycin and test compounds (concentration: 1×10^-6 M), pH 7.0. The reaction was initiated by addition of 1 mM ATP. Results were expressed as the percent of control.

[2] = tested on: PTH-induced bone resorption (calvariae from Wistar rats); test: Bone organ culture: inhibition of PTH-induced bone resorption; format: cell-based; conditions: 144 h; Wistar rat calvariae; 10^-8 M human PTH (1-34); concentration 1×10^-6 M; six days
Procedure: Test 2 (Bone organ culture) Test Method […] In control dishes, PTH was not added. Control and PTH control were exposed to an equivalent concentration of the vehicle. Six days later, the concentration of calcium ((Ca]) in the medium was measured by methylxylenol blue method and the percentage of inhibition of PTH-induced bone resorption was calculated according to following formula [formula] Cp: [Ca] in PTH control dishes CD: [Ca] in the test compound dishes C0 : [Ca] in control dishes

Inhibition (%) of vacuolar type H^+ -ATPase proton transport [1] | SMILES | inhibition at 1 µM [2]
93% | C=Cc1cnc2c(NC(=O)c3c(Cl)cccc3Cl)cccc2c1CC(=O)NCc1ccccn1 [71-(2), 8-(2,6-dichlorobenzoylamino)-4-[(pyridin-2-ylmethyl)carbamoylmethyl]-3-vinylquinoline] | 100%
94% | C=CCc1cnc2c(NC(=O)c3c(Cl)cccc3Cl)cccc2c1Sc1ncc[nH]1 [28 (dihydrochloride), 8-(2,6-Dichlorobenzoylamino)-4-(imidazol-2-ylthio)-3-allylquinoline] | 100%
100% | C#Cc1cnc2c(NC(=O)c3c(Cl)cccc3Cl)cccc2c1 [Example 5, 8-(2,6-dichlorobenzoylamino)-3-ethynylquinoline] | 98%
97% | O=C(Nc1cccc2c(-n3cccn3)ccnc12)c1c(Cl)cccc1Cl [85-(2) (free), 8-(2,6-Dichlorobenzoylamino)-4-(pyrazol-1-yl)quinoline] | 100%
100% | Cl.N#Cc1cnc2c(NC(=O)c3c(Cl)cccc3Cl)cccc2c1Cn1ccnc1 [52 (hydrochloride), 3-cyano-8-(2,6-dichlorobenzoylamino)-4-(imidazol-1-ylmethyl)quinoline hydrochloride] | 100%
